The target in experiment [1] is human PDE4D catalytic domain (UniProt no. Q08499 [S380-L740]) (Homo sapiens (Human), UniProt Q08499). Put plainly: PDE4 assay (TR-FRET, cAMP hydrolysis). The experiment is classed as biochemical. The following applies: read-out: PDE4 IC50 range. The protocol: The human PDE4D catalytic domain (UniProt no. Q08499 [S380-L740]) was incubated with a mixture of non-labelled cAMP (cyclic adenosine monophosphate) and fluorescein amidite (FAM) conjugated cAMP and titrated test or reference compound.
Following brief incubation the enzymatic reaction was stopped by addition of binding buffer containing nanoparticles with immobilized trivalent metal ions capable of binding 1) AMP phospho groups and 2) terbium (Tb) donor fluorophores. Subsequent excitation of the Tb donor triggered time-resolved FRET to adjacent FAM acceptor molecules resulting in light emission. In the presence of a PDE4 inhibitor, AMP generation was reduced resulting in a lower fluorescence signal. The cAMP phosphodiester is not bound by the detection system.
Results were expressed as IC50 values (nM) calculated from inhibition curves where the TR-FRET signal was normalized to Tb fluorescence intensity and the negative (DMSO vehicle) and positive (10 microM a PDE4 inhibitor reference compound) controls.
A general note: Time-resolved FRET reads energy transfer from a long-lived donor to a nearby acceptor.

In experiment [2] the test system is Human peripheral blood mononuclear cells (PBMC). Put plainly: TNF-α release from LPS-stimulated PBMC. The following applies: Lipopolysaccharide 1 microg/ml, 18 hours, AlphaLISA, read-out: TNF-α IC50 range. The experiment is classed as cell-based. On the procedure: Human peripheral blood mononuclear cells (PBMC) were isolated from fresh buffy coats by density centrifugation using lymphoprep tubes (Medinor). Frozen PBMC's were washed in serum free assay buffer (RPMI1640 with 25 mM HEPES, 1% pen/strep, […] L glutamine, 0.5% human serum albumin) and living cells counted. Lipopolysaccharide (1 microg/ml; SIGMA) was added to the cells which were then transferred to 384 well tissue culture plates ([…]) containing titrated test compounds. The cells were incubated for 18 hours at 37° C. in serum free assay buffer and the level of TNFalpha in the supernatant was quantitated by AlphaLISA (PerkinElmer) by measuring fluorescence intensity at 615 nm.
Results were expressed as IC50 values calculated from inhibition curves using as controls the secretion in LPS stimulated wells and the secretion in cells incubated with 10 microM of a PDE4 inhibitor reference compound.
In general terms: Alpha assays give light when donor and acceptor beads are brought close together.

Chain of human PDE4D catalytic domain (Q08499 380-740): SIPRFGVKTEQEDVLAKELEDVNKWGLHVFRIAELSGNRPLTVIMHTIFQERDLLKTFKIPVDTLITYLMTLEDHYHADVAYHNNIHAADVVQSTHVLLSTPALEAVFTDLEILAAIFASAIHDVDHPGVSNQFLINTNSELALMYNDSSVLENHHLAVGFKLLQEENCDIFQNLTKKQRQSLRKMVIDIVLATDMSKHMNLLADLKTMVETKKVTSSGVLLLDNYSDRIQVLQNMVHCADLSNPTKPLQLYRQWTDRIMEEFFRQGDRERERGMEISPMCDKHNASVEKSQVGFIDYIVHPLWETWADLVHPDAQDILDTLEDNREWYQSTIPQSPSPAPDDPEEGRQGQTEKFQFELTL

A word on the IC50: it is the midpoint of a concentration-inhibition curve. With `Cc1cc(C(=O)OC2CN(c3nc4c(c(N(C)C5CCOCC5)n3)[S+](O)CC4)C2)cc(C)n1` (centres unmarked) [Example 41, [1-[4-[methyl(tetra-hydropyran-4-yl)amino]-5-oxido-6,7-dihydro-thieno[3,2-d]pyrimidin-5-ium-2-yl]azetidin-3-yl] 2,6-dimethylpyridine-4-carboxylate], the concentration for half-maximal inhibition (IC50) in experiment [1] and in experiment [2] was less than 100 nM in each case.
Regarding `COc1ccc(C(=O)OC2CN(c3nc4c(c(N(C)C5CCOCC5)n3)[S+]([O-])CC4)C2)cc1` (centres unmarked) [Example 42, [1-[4-[methyl(tetra-hydropyran-4-yl)amino]-5-oxido-6,7-dihydro-thieno[3,2-d]pyrimidin-5-ium-2-yl]azetidin-3-yl] 4-methoxybenzoate], the half-maximal inhibitory concentration (IC50) in experiment [1] and in experiment [2] was less than 100 nM throughout.
`COc1cccc(C(=O)OC2CN(c3nc4c(c(N(C)C5CCOCC5)n3)[S+](O)CC4)C2)c1` (centres unmarked) [Example 43, [1-[4-[methyl(tetra-hydropyran-4-yl)amino]-5-oxido-6,7-dihydro-thieno[3,2-d]pyrimidin-5-ium-2-yl]azetidin-3-yl] 3-methoxybenzoate]: the concentration for half-maximal inhibition (IC50) in experiment [1] and in experiment [2] was less than 100 nM throughout.
Turning to `CN(c1nc(N2CC(OC(=O)CCS(C)(=O)=O)C2)nc2c1[S+]([O-])CC2)C1CCOCC1` (centres unmarked) [Example 44], the IC50 in experiment [1] and in experiment [2] was 100 to 500 nM throughout.
Take `CCc1cc(C(=O)OC2CN(c3nc4c(c(N(C)C5CCOCC5)n3)[S+]([O-])CC4)C2)nn1C` (centres unmarked) [Example 45, [1-[4-[methyl(tetra-hydropyran-4-yl)amino]-5-oxido-6,7-dihydro-thieno[3,2-d]pyrimidin-5-ium-2-yl]azetidin-3-yl] 5-ethyl-1-methyl-pyrazole-3-carboxylate]: the IC50 in experiment [1] and in experiment [2] was less than 100 nM each time.
`CCc1nc(C(=O)OC2CN(c3nc4c(c(N(C)C5CCOCC5)n3)[S+](O)CC4)C2)cs1` (centres unmarked) [Example 46, [1-[4-[methyl(tetra-hydropyran-4-yl)amino]-5-oxido-6,7-dihydro-thieno[3,2-d]pyrimidin-5-ium-2-yl]azetidin-3-yl] 2-ethylthiazole-4-carboxylate]: the IC50 in experiment [1] and in experiment [2] was less than 100 nM in each case.
In the case of `CC(=O)c1cccc(C(=O)OC2CN(c3nc4c(c(N(C)C5CCOCC5)n3)[S+](O)CC4)C2)c1` (centres unmarked) [Example 47, [1-[4-[methyl(tetra-hydropyran-4-yl)amino]-5-oxido-6,7-dihydro-thieno[3,2-d]pyrimidin-5-ium-2-yl]azetidin-3-yl] 3-acetylbenzoate], the IC50 in experiment [1] and in experiment [2] was less than 100 nM each time.
With `CC(=O)c1ccc(C(=O)OC2CN(c3nc4c(c(N(C)C5CCOCC5)n3)[S+](O)CC4)C2)cc1` (centres unmarked) [Example 48, [1-[4-[methyl(tetra-hydropyran-4-yl)amino]-5-oxido-6,7-dihydro-thieno[3,2-d]pyrimidin-5-ium-2-yl]azetidin-3-yl] 4-acetylbenzoate], the IC50 in experiment [1] and in experiment [2] was less than 100 nM throughout.
For `CC(=O)N1CCC(C(=O)OC2CN(c3nc4c(c(N(C)C5CCOCC5)n3)[S+](O)CC4)C2)CC1` (centres unmarked) [Example 49, [1-[4-[methyl(tetra-hydropyran-4-yl)amino]-5-oxido-6,7-dihydro-thieno[3,2-d]pyrimidin-5-ium-2-yl]azetidin-3-yl] 1-acetylpiperidine-4-carboxylate], the IC50 in experiment [1] and in experiment [2] was less than 100 nM in each case.
With `CN(c1nc(N2CC(OC(=O)C3CCS(=O)(=O)CC3)C2)nc2c1[S+](O)CC2)C1CCOCC1` (centres unmarked) [Example 50, [1-[4-[methyl(tetra-hydropyran-4-yl)amino]-5-oxido-6,7-dihydro-thieno[3,2-d]pyrimidin-5-ium-2-yl]azetidin-3-yl] 1,1-dioxothiane-4-carboxylate], the IC50 in experiment [1] and in experiment [2] was 100 to 500 nM throughout.
For `CNC(=O)c1ccc(C(=O)OC2CN(c3nc4c(c(N(C)C5CCOCC5)n3)[S+](O)CC4)C2)cc1` (centres unmarked) [Example 51, [1-[4-[methyl(tetra-hydropyran-4-yl)amino]-5-oxido-6,7-dihydro-thieno[3,2-d]pyrimidin-5-ium-2-yl]azetidin-3-yl] 4-(methylcarbamoyl)-benzoate], the IC50 in experiment [1] and in experiment [2] was less than 100 nM in each case.
Take `COC(=O)N1CCC(C(=O)OC2CN(c3nc4c(c(N(C)C5CCOCC5)n3)[S+](O)CC4)C2)CC1` (centres unmarked) [Example 52, O1-methyl O4-[1-[4-[methyl(tetrahydro-pyran-4-yl)amino]-5-oxido-6,7-dihydro-thieno[3,2-d]pyrimidin-5-ium-2-yl]azetidin-3-yl] piperidine-1,4-dicarboxylate]: the half-maximal inhibitory concentration (IC50) in experiment [1] and in experiment [2] was less than 100 nM throughout.
Turning to `CN(C)C(=O)c1ccc(C(=O)OC2CN(c3nc4c(c(N(C)C5CCOCC5)n3)[S+](O)CC4)C2)cc1` (centres unmarked) [Example 53, [1-[4-[methyl(tetra-hydropyran-4-yl)amino]-5-oxido-6,7-dihydro-thieno[3,2-d]pyrimidin-5-ium-2-yl]azetidin-3-yl] 4-(dimethylcarbamoyl)-benzoate], the IC50 in experiment [1] and in experiment [2] was less than 100 nM throughout.
Consider `CN(c1nc(N2CC(OC(=O)c3ccc(S(C)(=O)=O)cc3)C2)nc2c1[S+](O)CC2)C1CCOCC1` (centres unmarked) [Example 54, [1-[4-[methyl(tetra-hydropyran-4-yl)amino]-5-oxido-6,7-dihydro-thieno[3,2-d]pyrimidin-5-ium-2-yl]azetidin-3-yl] 4-methylsulfonyl-benzoate], for which the half-inhibitory concentration (IC50) in experiment [1] and in experiment [2] was less than 100 nM throughout.
`CN(C)C(=O)N1CCC(C(=O)OC2CN(c3nc4c(c(N(C)C5CCOCC5)n3)[S+](O)CC4)C2)CC1` (centres unmarked) [Example 55, [1-[4-[methyl(tetra-hydropyran-4-yl)amino]-5-oxido-6,7-dihydro-thieno[3,2-d]pyrimidin-5-ium-2-yl]azetidin-3-yl] 1-(dimethylcarbamoyl)-piperidine-4-carboxylate]: the concentration for half-maximal inhibition (IC50) in experiment [1] and in experiment [2] was less than 100 nM in each case.
In the case of `CCS(=O)(=O)c1cccc(C(=O)OC2CN(c3nc4c(c(N(C)C5CCOCC5)n3)[S+]([O-])CC4)C2)c1` (centres unmarked) [Example 56, [1-[4-[methyl(tetra-hydropyran-4-yl)amino]-5-oxido-6,7-dihydro-thieno[3,2-d]pyrimidin-5-ium-2-yl]azetidin-3-yl] 3-ethylsulfonylbenzoate], the IC50 in experiment [1] and in experiment [2] was less than 100 nM throughout.
Take `CCS(=O)(=O)c1ccc(C(=O)OC2CN(c3nc4c(c(N(C)C5CCOCC5)n3)[S+]([O-])CC4)C2)cc1` (centres unmarked) [Example 57, [1-[4-[methyl(tetra-hydropyran-4-yl)amino]-5-oxido-6,7-dihydro-thieno[3,2-d]pyrimidin-5-ium-2-yl]azetidin-3-yl] 4-ethylsulfonylbenzoate]: the half-maximal inhibitory concentration (IC50) in experiment [1] and in experiment [2] was less than 100 nM throughout.
Take `CNS(=O)(=O)c1ccc(C(=O)OC2CN(c3nc4c(c(N(C)C5CCOCC5)n3)[S+]([O-])CC4)C2)cc1` (centres unmarked) [Example 58, [1-[4-[methyl(tetra-hydropyran-4-yl)amino]-5-oxido-6,7-dihydro-thieno[3,2-d]pyrimidin-5-ium-2-yl]azetidin-3-yl] 4-(methylsulfamoyl)-benzoate]: the half-maximal inhibitory concentration (IC50) in experiment [1] and in experiment [2] was less than 100 nM throughout.
In the case of `CC(C)S(=O)(=O)c1cccc(C(=O)OC2CN(c3nc4c(c(N(C)C5CCOCC5)n3)[S+](O)CC4)C2)c1` (centres unmarked) [Example 59, [1-[4-[methyl(tetra-hydropyran-4-yl)amino]-5-oxido-6,7-dihydro-thieno[3,2-d]pyrimidin-5-ium-2-yl]azetidin-3-yl] 3-isopropylsulfonyl-benzoate], the IC50 in experiment [1] and in experiment [2] was less than 100 nM each time.
For `CC(C)S(=O)(=O)c1ccc(C(=O)OC2CN(c3nc4c(c(N(C)C5CCOCC5)n3)[S+]([O-])CC4)C2)cc1` (centres unmarked) [Example 60, [1-[4-[methyl(tetra-hydropyran-4-yl)amino]-5-oxido-6,7-dihydro-thieno[3,2-d]pyrimidin-5-ium-2-yl]azetidin-3-yl] 4-isopropylsulfonyl-benzoate], the IC50 in experiment [1] and in experiment [2] was less than 100 nM in each case.
For the compound `CN(c1nc(N2CC(OC(=O)c3ccc(C(=O)N4CCOCC4)cc3)C2)nc2c1[S+](O)CC2)C1CCOCC1` (centres unmarked) [Example 61, [1-[4-[methyl(tetra-hydropyran-4-yl)amino]-5-oxido-6,7-dihydro-thieno[3,2-d]pyrimidin-5-ium-2-yl]azetidin-3-yl] 4-(morpholine-4-carbonyl)benzoate], the half-maximal inhibitory concentration (IC50) in experiment [1] and in experiment [2] was less than 100 nM throughout.
`CN(c1nc(N2CC(OC(=O)c3ccc(S(=O)(=O)C4CCCC4)cc3)C2)nc2c1[S+]([O-])CC2)C1CCOCC1` (centres unmarked) [Example 62, [1-[4-[methyl(tetra-hydropyran-4-yl)amino]-5-oxido-6,7-dihydro-thieno[3,2-d]pyrimidin-5-ium-2-yl]azetidin-3-yl] 4-cyclopentylsulfonyl-benzoate]: the IC50 in experiment [1] and in experiment [2] was less than 100 nM each time.

The record behind these values is patent publication US11365204B2, “Substituted dihydrothienopyrimidines and their use as phosphodiesterase inhibitors” (UNION therapeutics A/S, priority 2017, dated 2022).
